Patent publication US20040110771A1, “7-(r)-aminotriazolopyrimidines, the production thereof and use of the same for combatting phytopathogenic fungi” (priority 2000, published 2004)

Experiments:
Type in all cases: in vivo
Pyrenophora teres = experiment: Activity against net blotch of barley caused by Pyrenophora teres; conditions: barley seedlings "Igri", inoculated 24 h after spraying, 6 days
Protocol: (§1) The active compounds were prepared separately or jointly as a 10% strength emulsion in a mixture of 70% by weight of cyclohexanone, 20% by weight of Nekanil® LN (Lutensol® AP6, wetting agent having emulsifying and dispersing action based on ethoxylated alkylphenols) and 10% by weight of Wettol® EM (nonionic emulsifier based on ethoxylated castor oil) and diluted with water to the desired concentration.
Leaves of potted barley seedlings of the cultivar “Igri” were sprayed to runoff point with an aqueous preparation of active compound which had been prepared from a stock solution made of 10% of active compound, 85% of cyclohexanone and 5% of emulsifier and were inoculated 24 hours after the spray coating had dried on with an aqueous spore suspension of Pyrenophora teres, the net blotch pathogen. The test plants were then placed in a greenhouse at 20-24° C. and 95-100% relative atmospheric humidity. After 6 days, the extent of the development of the disease was determined visually in % infection of the entire leaf area.

Puccinia recondita = experiment: Curative activity against brown rust of wheat caused by Puccinia recondita; conditions: curative spray 24 h after inoculation, wheat seedlings "Kanzler", 7 days
Protocol: as §1
Leaves of potted wheat seedlings of the cultivar “Kanzler” were dusted with spores of brown rust (Puccinia recondita). The pots were then placed in a chamber with high atmospheric humidity (90 to 95%) at 20-22° C. for 24 hours. During this period, the spores germinated and the germinal tubes penetrated into the leaf tissue. The following day, the infected plants were sprayed to runoff point with an aqueous preparation of active compound which had been prepared from a stock solution made of 10% of active compound, 85% of cyclohexanone and 5% of emulsifier. After the spray coating had dried on, the test plants were cultivated in a greenhouse at 20-22° C. and 65-70% relative atmospheric humidity for 7 days. The extent of the rust fungus development on the leaves was then determined.

[1] = test system: Blumeria graminis forma specialis tritici; experiment: Activity against mildew of wheat caused by Blumeria graminis forma specialis tritici; conditions: wheat seedlings "Kanzler", dusted with spores 24 h after spraying, 7 days
Protocol: as §1
Leaves of potted wheat seedlings of the cultivar “Kanzler” were sprayed to runoff point with an aqueous preparation of active compound which had been prepared from a stock solution made of 10% of active compound, 85% of cyclohexanone and 5% of emulsifier and were dusted 24 hours after the spray coating had dried on with spores of mildew of wheat (Blumeria graminis forma specialis tritici). The test plants were then placed in a greenhouse at 20-24° C. and 60-90% relative atmospheric humidity. After 7 days, the extent of the mildew development was determined visually in % infection of the entire leaf area.

CC[C@@H](C)Nc1c(-c2c(F)cccc2Cl)c(Cl)nc2ncnn12 [I.-1]
% infection of the leaves after application of an aqueous preparation comprising . . . ppm of active compound (Pyrenophora teres; 16 ppm): 50%
% infection of the leaves after application of an aqueous preparation comprising . . . ppm of active compound (Pyrenophora teres; 63 ppm): 0%
% infection of the leaves after application of an aqueous preparation comprising . . . ppm of active compound (Puccinia recondita; 16 ppm): 5%
% infection of the leaves after application of an aqueous preparation comprising . . . ppm of active compound (Puccinia recondita; 63 ppm): 3%
% infection of the leaves after application of an aqueous preparation comprising . . . ppm of active compound (Puccinia recondita; 250 ppm): 0%

C[C@@H](Nc1c(-c2c(F)cc(F)cc2F)c(Cl)nc2ncnn12)C(C)(C)C [I.-15, (R)-5-chloro-7-(3,3-dimethylbut-2-yl)amino-6-(2,4,6-trifluoro-phenyl)-1,2,4-triazolo[1,5-a]pyrimidine]
% infection of the leaves after application of an aqueous preparation comprising . . . ppm of active compound ([1]; 16 ppm): 7%
% infection of the leaves after application of an aqueous preparation comprising . . . ppm of active compound ([1]; 63 ppm): 7%
% infection of the leaves after application of an aqueous preparation comprising . . . ppm of active compound ([1]; 250 ppm): 3%
% infection of the leaves after application of an aqueous preparation comprising . . . ppm of active compound (Puccinia recondita; 16 ppm): 0%
% infection of the leaves after application of an aqueous preparation comprising . . . ppm of active compound (Puccinia recondita; 63 ppm): 0%
% infection of the leaves after application of an aqueous preparation comprising . . . ppm of active compound (Puccinia recondita; 250 ppm): 0%

CCCC[C@@H](C)Nc1c(-c2c(F)cc(F)cc2F)c(Cl)nc2ncnn12 [I.-27]
% infection of the leaves after application of an aqueous preparation comprising . . . ppm of active compound (Pyrenophora teres; 16 ppm): 3%
% infection of the leaves after application of an aqueous preparation comprising . . . ppm of active compound (Pyrenophora teres; 63 ppm): 0%
% infection of the leaves after application of an aqueous preparation comprising . . . ppm of active compound (Pyrenophora teres; 250 ppm): 0%
% infection of the leaves after application of an aqueous preparation comprising . . . ppm of active compound (Puccinia recondita; 250 ppm): 40%

COCC(C)Nc1c(-c2c(F)cc(F)cc2F)c(Cl)nc2ncnn12 (centres unmarked) [I.-32]
% infection of the leaves after application of an aqueous preparation comprising . . . ppm of active compound (Pyrenophora teres; 16 ppm): 5%
% infection of the leaves after application of an aqueous preparation comprising . . . ppm of active compound (Pyrenophora teres; 63 ppm): 0%
% infection of the leaves after application of an aqueous preparation comprising . . . ppm of active compound (Pyrenophora teres; 250 ppm): 0%
% infection of the leaves after application of an aqueous preparation comprising . . . ppm of active compound (Puccinia recondita; 63 ppm): 70%
% infection of the leaves after application of an aqueous preparation comprising . . . ppm of active compound (Puccinia recondita; 250 ppm): 15%

CC[C@H](C)Nc1c(-c2c(F)cccc2Cl)c(Cl)nc2ncnn12 [comparison (S)-amine of I.-1]
% infection of the leaves after application of an aqueous preparation comprising . . . ppm of active compound (Pyrenophora teres; 16 ppm): 100%
% infection of the leaves after application of an aqueous preparation comprising . . . ppm of active compound (Pyrenophora teres; 63 ppm): 20%
% infection of the leaves after application of an aqueous preparation comprising . . . ppm of active compound (Puccinia recondita; 16 ppm): 60%
% infection of the leaves after application of an aqueous preparation comprising . . . ppm of active compound (Puccinia recondita; 63 ppm): 20%
% infection of the leaves after application of an aqueous preparation comprising . . . ppm of active compound (Puccinia recondita; 250 ppm): 15%

C[C@H](Nc1c(-c2c(F)cc(F)cc2F)c(Cl)nc2ncnn12)C(C)(C)C [comparison (S)-amine of I.-15]
% infection of the leaves after application of an aqueous preparation comprising . . . ppm of active compound ([1]; 16 ppm): 90%
% infection of the leaves after application of an aqueous preparation comprising . . . ppm of active compound ([1]; 63 ppm): 80%
% infection of the leaves after application of an aqueous preparation comprising . . . ppm of active compound ([1]; 250 ppm): 40%
% infection of the leaves after application of an aqueous preparation comprising . . . ppm of active compound (Puccinia recondita; 16 ppm): 100%
% infection of the leaves after application of an aqueous preparation comprising . . . ppm of active compound (Puccinia recondita; 63 ppm): 100%
% infection of the leaves after application of an aqueous preparation comprising . . . ppm of active compound (Puccinia recondita; 250 ppm): 100%

CCCC[C@H](C)Nc1c(-c2c(F)cc(F)cc2F)c(Cl)nc2ncnn12 [comparison (S)-amine of I.-27]
% infection of the leaves after application of an aqueous preparation comprising . . . ppm of active compound (Pyrenophora teres; 16 ppm): 100%
% infection of the leaves after application of an aqueous preparation comprising . . . ppm of active compound (Pyrenophora teres; 63 ppm): 90%
% infection of the leaves after application of an aqueous preparation comprising . . . ppm of active compound (Pyrenophora teres; 250 ppm): 7%
% infection of the leaves after application of an aqueous preparation comprising . . . ppm of active compound (Puccinia recondita; 250 ppm): 100%

CCC(C)Nc1c(-c2ccccc2Cl)c(Cl)nc2ncnn12 [comparison (S)-amine of I.-42]
% infection of the leaves after application of an aqueous preparation comprising . . . ppm of active compound (Puccinia recondita; 16 ppm): 100%
% infection of the leaves after application of an aqueous preparation comprising . . . ppm of active compound (Puccinia recondita; 63 ppm): 60%
% infection of the leaves after application of an aqueous preparation comprising . . . ppm of active compound (Puccinia recondita; 250 ppm): 15%
